Assay results as given in patent US9198942B1, “Method of preparing bioactive compound from solid-state cultivated Antrodia cinnamomea mycelium for anti-metastasis against lung cancer cells” (TAIWAN LEADER BIOTECH CORP., priority 2014, dated 2015).

Experiments:
Format in all cases: cell-based, human
[1] = test system: urokinase-type plasminogen activator (uPA); test: Casein-plasminogen zymography of uPA activity in A549 cells; settings: A549, 5-40 μM for 24 hr; especially 40 μM
Procedure: Electrophoresis is used for detecting hydrolytic enzymes. The part regarding plasminogen in casein-zymography is used for analyzing activity of urokinase-type plasminogen activator (uPA) of lung cancer cells, where uPA would decompose plasminogen into plasmin.
(§1) At first, lung cancer cells A549 are cultured as described in state-of-use 1. After being washed down with tripsin, the cells are replanted in a 12-well plate at a seeding density of 2×10^5 cells/cm^2 for 24 hr for attachment. Then, the kit is rinsed with PBS two times. After being added into media having concentrations of 0, 5, 10 and 40 μM of Leader 1 for 24 hr, the cells are added into media having 1% fetal bovine serum for 24 hr for obtaining culture media containing the cells. The kit is put into an Eppendorf centrifuge tube for centrifugal rotation at a 1250 rpm speed for 10 min. Then, the supernatant is taken out to be stored at −20° C.
An equivalent amount of the supernatant is added into 8%-gradient colloidal wells of gel (containing 15 μl/ml plasminogen and 1 mg/ml gelatin) with a 6-times MMP dye. A running buffer is added and reaction stops after 45 kD of a MMP marker is resolved into the gel with a current of 80 V and 300 mA.
(§2) The gel is taken out for reaction in a zymography renaturing buffer at a 35 rpm speed. The reaction is done for 2 times at a room temperature and it takes 30 min for each time. […]

[2] = test system: matrix metalloproteinase (MMP-2, MMP-9); test: Gelatin zymography of gelatinase activity in A549 cells; settings: A549, 5-40 μM for 24 hr; especially 40 μM
Procedure: Electrophoresis is used to detect hydrolytic enzymes. Gelatin zymography is used to analyze activities of gelatinases (MMP-2, MMP-9) in matrix metalloproteinase (MMP) of lung cancer cells.
as §1
An equivalent amount of the supernatant is added into 8%-gradient colloidal wells of gel (SDS-PAGE, containing 1 mg/ml gelatin) with a 6-times MMP dye. A running buffer is added and reaction stops after 45 kD of a MMP marker is resolved into the gel with a current of 80 V and 300 mA.
as §2

A549 lung cancer cells [3] = test: Wound healing of A549 cells; settings: A549, 5-40 μM, observed at 0, 12, 24 or 48 hr; especially 40 μM
Procedure: (§3) The present invention selects a human lung cancer cell, A549, for exploring lung cancer cell metastasis. For culturing A549, the A549 cells grown in 75 T flask are replanted in a 10 square-centimeter (cm^2) dish at a seeding density of 2×10^5 cells per square-centimeter (cells/cm^2) to be cultured at 37 Celsius degrees (° C.) in an incubator having 5% carbon dioxide (CO2). The culture medium used is Ham's F12 (which is recommended by Bioresources Collection and Research Center (BCRC), Taiwan, and American Type Culture Center (ATCC)) and is added with extra 10% fetal bovine serum. State-of-Use 2: Preparing Extracts of Solid-State Cultivated Antrodia cinnamomea Mycelium
At first, lung cancer cells A549 are cultured as described in state-of-use 1. After being washed down with tripsin, the cells are replanted in a 12-well plate at a seeding density of […] for 24 hr for attachment. Then, a wound line is made in each well. After floating part of the cells are removed by being slight-washed with PBS, the cells are added to culture media having concentrations of 0, 5, 10, 20 and 40 μM of Leader 1 for observation at time points of 0, 12, 24 or 48 hr to be photographed as records, where a medium dosed with 0 μM of DMSO is used as a control group.

[4] = test system: related proteases and proteins that promote metastasis (p-Akt, E-cadherin, MMP-2,9, TIMP-1); test: Western blot of metastasis-related proteases and proteins in lung cancer cells; settings: β-actin as control
Procedure: After total proteins of the cell are obtained, an equivalent amount of proteins are added to 8-10% gradient electrophoresis gel wells at a current of 80 V and 300 mA for 240 min for separating the total proteins. The total proteins sorted according to their sizes are blotted on a polyvinylidene difluoride (PVDF) membrane at a condition using a 100 V current for 2 hr. Then, the PVDF membrane is reacted with a blocking buffer for 1 hr. Therein, the blocking buffer contains 10% w/v skim milk powder in a TBS-T buffer, and the TBS-T buffer contains a TBS buffer having 0.1% Tween 20.
Thereafter, the PVDF membrane is immersed in an antibody solution of actin (Cell signaling Co.); an antibody solution of p-Akt or protein kinase B (1:1000, Cell signaling Co.); an antibody solution of E-cadherin (1:1000, Cell signaling Co.); an antibody solution of MMP-2,9 in matrix metalloproteinase (1:1000, Santa Cruz Co.); and an antibody solution of TIMP-1 (1:1000, Cell signaling Co.). […]
Then, the PVDF membrane is immersed in an anti-mouse secondary antibody solution having horseradish peroxidase and an anti-rabbit secondary antibody solution for reaction at a room temperature for 1˜2 hr. […] Then, an enhanced chemiluminescene (ECL) regent is used to detect fluorescence intensity, where β-actin protein is used as a control group of expression for statistical mapping with sigma plot 10.0.

A549 lung cancer cells [5] = test: Matrigel transwell invasion of A549 cells; settings: A549, 5-40 μM for 24 hr, 12 or 24 hr, especially 40 μM
Procedure: The 24-well kit is used for analyzing lung cancer cell invasion. The kit is prepared by injecting Matrigel (3 mg/ml-well, BD science) into the upper layer of the kit, to be placed in an incubator for 24 hr and, then, process solidification.
At first, lung cancer cells A549 are cultured as described in state-of-use 1. After being washed down with tripsin, the cells are replanted in a 6-well plate at a seeding density of 2×10^5 cells/cm^2 for 24 hr for attachment. After being added into media having concentrations of 0, 5, 10 and 40 μM of Leader 1 for 24 hr, the cells are rinsed with PBS and, then, dropped down with tripsin. The cells are loaded into centrifuge tubes for centrifugal rotation at a speed of 1280 rpm for 3 min to remove supernatant. Residual serum is slowly removed by washing with PBS. Then, centrifugal rotations are processed at a speed of 1280 rpm for 3 min. The cells are added at a density of 2×10^5 cells/cm^2 into culture media, where the media are located at the upper layer and injected with a 200 μl solution containing only 0.1% fetal bovine serum. Another media are located at the lower layer and contain 20% fetal bovine serum. The kit is put in an incubator to be observed after 12 or 24 hr.
(§4) The kit is soaked in methanol and stayed still for 20 min to be dried afterwards. Then, the kit is soaked in Gimsa to be dyed for 20 min. […]

A549 lung cancer cells [6] = test: Transwell migration of A549 cells; settings: A549, 5-40 μM for 24 hr, with or without TNF-α induction, 12 or 24 hr; especially 40 μM
Procedure: 24-well transwell kits (Millipore Co.) are used for analyzing lung cancer cell migration.
At first, lung cancer cells A549 are cultured as described in state-of-use 1. After being washed down with tripsin, the cells are replanted in a 12-well plate at a seeding density of 2×10^5 cells/cm^2 for 24 hr for attachment. After being added into media having concentrations of 0, 5, 10 and 40 μM of Leader 1 for 24 hr, the cells are rinsed with PBS and, then, dropped down with tripsin. The cells are loaded into centrifuge tubes for centrifugal rotation at a speed of 1280 rpm for 3 min to remove supernatant. Residual serum is removed by slow-washing with PBS. Then, centrifugal rotations are processed at a speed of 1280 rpm for 3 min. The cells are added into culture media at a density of 2×10^5 cells/cm^2, where the media are located at an upper layer of the kit and injected with a 200 μl solution containing only 0.1% fetal bovine serum. Another media are located at a lower layer of the kit and containing 20% fetal bovine serum (induced or not induced with TNF-α). The kit having the two layers of media is put in an incubator to be observed after 12 or 24 hr.
as §4

A549 lung cancer cells [7] = test: MTT survival rate of A549 cells; settings: A549, 0~40 μM, 24 hr
Procedure: as §3
At first, A549 cells are cultured as described in state-of-use 1. After being washed with tripsin, the cells are replanted for 24 hr in a dish having 24 wells at a seeding density of 2×10^5 cells/cm^2. In Table 1, Leader 1 having a concentration of 0, 5, 10, or 40 μM is cultured for 24 hr to be applied to A549, where Leader 1 having 0 μM is added with DMSO to be used as a control group. […] Then, the cell membrane and the blue-violet crystals are dissolved with DMSO to acquire light-absorbance rates with a wavelength of 570 nm for forming a statistical diagram by using sigma plot 10.0.

COc1cc(C)c(OC)c(OC)c1O [Leader 1, 2,3,6-trimethoxy-4-methylphenol]
suppressing plasminogen activator of lung cancer cells [1]: shows activity on suppressing plasminogen activator of lung cancer cells
suppressing matrix metalloproteinase (MMP-2, MMP-9) activity of lung cancer cells [2]: shows ability on suppressing matrix metalloproteinase (MMP-2, MMP-9) activity of lung cancer cells
suppressing wound healing of lung cancer cells (A549 lung cancer cells [3]): shows its ability on suppressing wound healing of lung cancer cells
suppressing related proteases and proteins that promote metastasis of lung cancer cells [4]: shows ability on suppressing related proteases and proteins that promote metastasis of lung cancer cells
suppressing invasion of lung cancer cells (A549 lung cancer cells [5]): shows ability on suppressing invasion of lung cancer cells
suppressing migration of lung cancer cells (A549 lung cancer cells [6]): shows activity on suppressing migration of lung cancer cells
survival rate of lung cancer cells (cytotoxicity) (A549 lung cancer cells [7]): no cytotoxicity to lung cancer cells
